Experimental data from ChEMBL document CHEMBL4265885, “New piperidine-based derivatives as sigma receptor ligands. Synthesis and pharmacological evaluation” (Bioorg Med Chem Lett, 2018).

How the values were obtained:
SH-SY5Y = assay: Cytotoxicity against human SH-SY5Y cells at 50 uM after 48 hrs by MTT assay; format: functional
PANC-1 = assay: Cytotoxicity against human PANC1 cells at 50 uM after 48 hrs by MTT assay; format: functional
[1] = molecular target: Sigma non-opioid intracellular receptor 1 (Rattus norvegicus, UniProt Q9R0C9); assay: Displacement of [3H]-(+)-pentazocine from sigma1 receptor in rat liver membranes after 120 mins by liquid scintillation counting; format: cell membranes, Membrane
[2] = molecular target: T1, Sigma intracellular receptor 2 (Rattus norvegicus, UniProt Q5U3Y7); assay: Displacement of [3H]-DTG from sigma2 receptor in rat liver membranes after 120 mins by liquid scintillation counting; format: cell membranes, Membrane
T1 sequence (Q5U3Y7 whole entry): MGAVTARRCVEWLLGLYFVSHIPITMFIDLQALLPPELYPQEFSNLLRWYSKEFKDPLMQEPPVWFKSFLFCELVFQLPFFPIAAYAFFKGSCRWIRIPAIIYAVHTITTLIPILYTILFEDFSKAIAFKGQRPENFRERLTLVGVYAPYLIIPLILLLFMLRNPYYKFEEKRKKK

Rattus norvegicus = species: Rattus norvegicus; assay: Selectivity index, ratio of Ki for sigma2 receptor in rat liver membranes to Ki for sigma1 receptor in rat liver membranes; format: cell membranes

Sigma non-opioid intracellular receptor 1, sequence (Q9R0C9 whole entry): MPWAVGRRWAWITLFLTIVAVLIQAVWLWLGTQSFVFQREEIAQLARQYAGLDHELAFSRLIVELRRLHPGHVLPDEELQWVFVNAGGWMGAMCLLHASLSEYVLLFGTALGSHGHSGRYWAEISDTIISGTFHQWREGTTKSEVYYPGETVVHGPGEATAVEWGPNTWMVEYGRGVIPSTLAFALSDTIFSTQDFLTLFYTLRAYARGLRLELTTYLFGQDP

CCCN(CCC)CCc1ccc(OC)c(OCCc2ccccc2)c1
Activity (SH-SY5Y): 92% | Activity (PANC-1): 92%

CCCN(CC1CCN(Cc2ccccc2)CC1)C(C)=O
Ki [1]: 36.8 nM

CCN(CC1CCN(Cc2ccccc2)CC1)C(C)=O
Ki [1]: 97.2 nM | Ki [2]: 422 nM | Ratio Ki (Rattus norvegicus): 4.3

c1ccc(CCN2CCCCC2)cc1
Activity (SH-SY5Y): 21% | Activity (PANC-1): 21%

Cc1ccccc1NC(=N)Nc1ccccc1C [DITOLYLGUANIDINE]
Activity (SH-SY5Y): 80% | Activity (PANC-1): 80%

O=C(CCCN1CCC(O)(c2ccc(Cl)cc2)CC1)c1ccc(F)cc1 [HALOPERIDOL]
Activity (SH-SY5Y): 66% | Activity (PANC-1): 66%

CC(C)=CCN1CCC2(C)c3cc(O)ccc3CC1C2C (stereo unspecified) [PENTAZOCINE]
Activity (SH-SY5Y): 5% | Activity (PANC-1): 5%

Fc1ccc(-n2cc(CCCCN3CCC4(CC3)OCc3ccccc34)c3ccccc32)cc1 [SIRAMESINE]
Activity (SH-SY5Y): 90% | Activity (PANC-1): 90%
